Experimental data from the supplement of paper PMC12406974.

Assays:
Experiment in all cases: maximum observed lethal fraction; higher = more cell death
[1] = tested on: U2OS PTBP1-KO
[2] = tested on: U2OS BCL2L12-KO
[3] = tested on: U2OS
[4] = tested on: U2OS BAX/BAK1 DKO
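Also: FLICK assay: SYTOX Green fluorescence of dead cells tracked over time after drugging in 96-well plates, with total cell counts taken from Triton X-100 lysed wells.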

| Structure (SMILES) | maximum observed lethal fraction ([1]; 0.1 µM) | maximum observed lethal fraction ([1]; 0.316 µM) | maximum observed lethal fraction ([1]; 1 µM) | maximum observed lethal fraction ([2]; 0.1 µM) | maximum observed lethal fraction ([2]; 0.316 µM) | maximum observed lethal fraction ([2]; 1 µM) | maximum observed lethal fraction ([3]; 0.1 µM) | maximum observed lethal fraction ([3]; 0.316 µM) | maximum observed lethal fraction ([3]; 1 µM) | maximum observed lethal fraction ([4]; 0.1 µM) | maximum observed lethal fraction ([4]; 0.316 µM) | maximum observed lethal fraction ([4]; 1 µM) | maximum observed lethal fraction ([1]; 3.16 µM) | maximum observed lethal fraction ([1]; 10 µM) | maximum observed lethal fraction ([2]; 3.16 µM) | maximum observed lethal fraction ([2]; 10 µM) | maximum observed lethal fraction ([3]; 3.16 µM) | maximum observed lethal fraction ([3]; 10 µM) | maximum observed lethal fraction ([4]; 3.16 µM) | maximum observed lethal fraction ([4]; 10 µM) | other results |
| --- | --- | --- | --- | --- | --- | --- | --- | --- | --- | --- | --- | --- | --- | --- | --- | --- | --- | --- | --- | --- | --- |
| CC(C)C[C@H](NC(=O)[C@H](Cc1ccccc1)NC(=O)c1cnccn1)B(O)O [Bortezomib] | 0.731 | 0.791 | 0.82 | 0.791 | 0.889 | 0.904 | 0.9 | 0.904 | 0.917 | 0.378 | 0.387 | 0.443 |  |  |  |  |  |  |  |  | maximum observed lethal fraction ([1]; 0.001 µM): 0.0725; maximum observed lethal fraction ([1]; 0.00316 µM): 0.108; maximum observed lethal fraction ([1]; 0.01 µM): 0.418; maximum observed lethal fraction ([1]; 0.0316 µM): 0.637; maximum observed lethal fraction ([2]; 0.001 µM): 0.0699; maximum observed lethal fraction ([2]; 0.00316 µM): 0.0922; maximum observed lethal fraction ([2]; 0.01 µM): 0.345; maximum observed lethal fraction ([2]; 0.0316 µM): 0.8; maximum observed lethal fraction ([3]; 0.001 µM): 0.0526; maximum observed lethal fraction ([3]; 0.00316 µM): 0.193; maximum observed lethal fraction ([3]; 0.01 µM): 0.757; maximum observed lethal fraction ([3]; 0.0316 µM): 0.865; maximum observed lethal fraction ([4]; 0.001 µM): 0.059; maximum observed lethal fraction ([4]; 0.00316 µM): 0.0694; maximum observed lethal fraction ([4]; 0.01 µM): 0.096; maximum observed lethal fraction ([4]; 0.0316 µM): 0.27 |
| COc1ccc(C[C@H]2NC[C@H](O)[C@H]2OC(C)=O)cc1 [Anisomycin] |  | 0.174 | 0.177 |  | 0.218 | 0.159 |  | 0.277 | 0.456 |  | 0.114 | 0.119 | 0.239 | 0.337 | 0.181 | 0.32 | 0.711 | 0.845 | 0.103 | 0.111 | maximum observed lethal fraction ([1]; 31.6 µM): 0.426; maximum observed lethal fraction ([1]; 100 µM): 0.403; maximum observed lethal fraction ([1]; 316 µM): 0.408; maximum observed lethal fraction ([2]; 31.6 µM): 0.353; maximum observed lethal fraction ([2]; 100 µM): 0.387; maximum observed lethal fraction ([2]; 316 µM): 0.444; maximum observed lethal fraction ([3]; 31.6 µM): 0.888; maximum observed lethal fraction ([3]; 100 µM): 0.879; maximum observed lethal fraction ([3]; 316 µM): 0.903; maximum observed lethal fraction ([4]; 31.6 µM): 0.121; maximum observed lethal fraction ([4]; 100 µM): 0.109; maximum observed lethal fraction ([4]; 316 µM): 0.107 |
| O=C(NOC[C@H](O)CO)c1ccc(F)c(F)c1Nc1ccc(I)cc1F [Mirdametinib] | 0.11 | 0.102 | 0.121 | 0.11 | 0.123 | 0.349 | 0.077 | 0.0842 | 0.244 | 0.0716 | 0.0737 | 0.078 | 0.187 | 0.229 | 0.546 | 0.58 | 0.353 | 0.435 | 0.0794 | 0.0785 | maximum observed lethal fraction ([1]; 0.0316 µM): 0.0994; maximum observed lethal fraction ([1]; 31.6 µM): 0.376; maximum observed lethal fraction ([2]; 0.0316 µM): 0.104; maximum observed lethal fraction ([2]; 31.6 µM): 0.806; maximum observed lethal fraction ([3]; 0.0316 µM): 0.0749; maximum observed lethal fraction ([3]; 31.6 µM): 0.554; maximum observed lethal fraction ([4]; 0.0316 µM): 0.0734; maximum observed lethal fraction ([4]; 31.6 µM): 0.0843 |
| CC[C@@]1(O)C(=O)OCc2c1cc1n(c2=O)Cc2cc3ccccc3nc2-1 [Camptothecin] | 0.0812 | 0.0849 | 0.107 | 0.0852 | 0.101 | 0.307 | 0.0732 | 0.0916 | 0.379 | 0.0708 | 0.0816 | 0.0795 | 0.295 | 0.328 | 0.664 | 0.8 | 0.625 | 0.786 | 0.0879 | 0.0915 | maximum observed lethal fraction ([1]; 0.01 µM): 0.0712; maximum observed lethal fraction ([1]; 0.0316 µM): 0.0841; maximum observed lethal fraction ([2]; 0.01 µM): 0.0758; maximum observed lethal fraction ([2]; 0.0316 µM): 0.083; maximum observed lethal fraction ([3]; 0.01 µM): 0.0607; maximum observed lethal fraction ([3]; 0.0316 µM): 0.0661; maximum observed lethal fraction ([4]; 0.01 µM): 0.0607; maximum observed lethal fraction ([4]; 0.0316 µM): 0.0659 |
| CC(=O)N[C@H]1[C@@H](O[C@@H]2O[C@H](CC(O)[C@H]3O[C@@H](n4ccc(=O)[nH]c4=O)[C@H](O)[C@@H]3O)[C@H](O)[C@H](O)[C@H]2NC(=O)/C=C/CC(C)C)O[C@H](CO)[C@@H](N)[C@@H]1O (stereo partly specified) [Tunicamycin] | 0.0724 | 0.0808 | 0.104 | 0.0857 | 0.196 | 0.58 | 0.0662 | 0.0886 | 0.347 | 0.0609 | 0.0665 | 0.0788 | 0.345 | 0.533 | 0.86 | 0.873 | 0.692 | 0.82 | 0.089 | 0.0844 | maximum observed lethal fraction ([1]; 0.01 µM): 0.0696; maximum observed lethal fraction ([1]; 0.0316 µM): 0.0731; maximum observed lethal fraction ([2]; 0.01 µM): 0.0673; maximum observed lethal fraction ([2]; 0.0316 µM): 0.0693; maximum observed lethal fraction ([3]; 0.01 µM): 0.0548; maximum observed lethal fraction ([3]; 0.0316 µM): 0.0561; maximum observed lethal fraction ([4]; 0.01 µM): 0.0556; maximum observed lethal fraction ([4]; 0.0316 µM): 0.0546 |
| NC(=O)c1cccc2cn(-c3ccc([C@@H]4CCCNC4)cc3)nc12 [Niraparib] | 0.0698 | 0.0678 | 0.0749 | 0.0692 | 0.0678 | 0.0775 | 0.0543 | 0.0611 | 0.0677 | 0.0556 | 0.0569 | 0.065 | 0.0795 | 0.0839 | 0.0795 | 0.0934 | 0.067 | 0.0744 | 0.0723 | 0.0787 | maximum observed lethal fraction ([1]; 31.6 µM): 0.396; maximum observed lethal fraction ([1]; 100 µM): 0.964; maximum observed lethal fraction ([2]; 31.6 µM): 0.86; maximum observed lethal fraction ([2]; 100 µM): 0.928; maximum observed lethal fraction ([3]; 31.6 µM): 0.716; maximum observed lethal fraction ([3]; 100 µM): 0.968; maximum observed lethal fraction ([4]; 31.6 µM): 0.342; maximum observed lethal fraction ([4]; 100 µM): 0.936 |
| O=C(CCCCCCC(=O)Nc1ccccc1)NO [Vorinostat] | 0.0673 | 0.0682 | 0.0906 | 0.0673 | 0.0704 | 0.185 | 0.0571 | 0.0602 | 0.0901 | 0.0548 | 0.0545 | 0.0635 | 0.316 | 0.481 | 0.586 | 0.804 | 0.458 | 0.659 | 0.0731 | 0.0736 | maximum observed lethal fraction ([1]; 31.6 µM): 0.558; maximum observed lethal fraction ([1]; 100 µM): 0.513; maximum observed lethal fraction ([2]; 31.6 µM): 0.824; maximum observed lethal fraction ([2]; 100 µM): 0.899; maximum observed lethal fraction ([3]; 31.6 µM): 0.778; maximum observed lethal fraction ([3]; 100 µM): 0.811; maximum observed lethal fraction ([4]; 31.6 µM): 0.081; maximum observed lethal fraction ([4]; 100 µM): 0.084 |
